Where two headings read alike, the source gives them in different places.
Assays:
[1] = tested on: platelet aggregation (PAF); assay: Inhibitory action on PAF-induced rabbit platelet aggregation; type: cell-based; conditions: Oryctolagus cuniculus, read-out: inhibitory percentage (platelet aggregation); for inhibition at 3 µM: 3 × 10^-6 M; for inhibition at 0.3 µM: 3 × 10^-7 M; for inhibition at 0.03 µM: 3 × 10^-8 M
Description: Blood was collected directly from the hearts of male rabbits using a syringe containing, as an anticoagulant, 3.15% citric acid (one part to 9 parts of blood). The blood was subjected to centrifuge at 800 rpm for ten minutes at room temperature to obtain platelet rich plasma (PRP). The remaining blood was further subjected to centrifuge at 3000 rpm for ten minnutes to separate platelet poor plasma (PPP) as the supernatant. PRP was diluted with PPP, and the number of platelets was adjusted to about 500,000/ μl. This PRP(250 μl) was stirred for two minutes at 37° C., and there was added a test sample, and the mixture was stirred for further two minutes, followed by addition of PAF of a given concentration. Platelet aggregation was examined by means of a platelet-agglutometer (manufactured by Rika Denki). Platelet aggregation preventing action of the test sample was determined based on the maximum percent light transmission (maximum percent. agglutination).

[2] = tested on: PAF-induced hypotension; assay: Inhibitory action on PAF-induced hypotension in rats; type: in vivo, rat (Sprague-Dawley); conditions: Rattus norvegicus, read-out: Inhibitory Rate (Lowering of Blood Pressure); for inhibition in vivo at 0.01 mg/kg / inhibition in vivo at 0.03 mg/kg / inhibition in vivo at 0.1 mg/kg: iv; for inhibition in vivo at 3 mg/kg / inhibition in vivo at 10 mg/kg / inhibition in vivo at 30 mg/kg / inhibition in vivo at 1 mg/kg: oral
Description: Sprague-Dawley male rats, each weighing about 250 g, were subjected to the experiment. The rats were cannulated on the side of femoral artery for measuring the blood pressure, and on the side of femoral vein for administering the drug. The blood pressure was measured through a pressure transducer and recorded. First, PAF (1 μg/kg) was administered intravenously (i.v.) to examine the extent of lowering of blood pressure. Then, the test samples were administered intravenously or orally. […]
The inhibitory action on PAF-induced hypotension (% inhibition) is indicated as the ratio of blood pressure-lowering degree (Δ mmHg) induced by PAF after administration of test samples relative to blood pressure-lowering degree (Δ mmHg) induced by PAF before administration of test samples.

SMILES: CCCCCCCCCCCCCCCCCCNC(=O)OCC(COC(=O)NCCN(C)C(=O)c1ccc[n+](CC)c1)OC (stereo not drawn) [Production Example 1, 3-[N-[2-(2-methoxy-3-octadecylcarbamoyloxypropoxycarbonyl)]aminoethyl-N-methyl]carbamoyl-1-ethylpyridinium iodide]
- inhibition at 3 µM [1]: 100%
- inhibition at 0.3 µM [1]: 100%
- inhibition at 0.03 µM [1]: 9%

SMILES: CC[n+]1cc(Br)cc(C(=O)N(CCOC(=O)NCCOc2cccc3ccccc23)c2ccccc2)c1 [Production Example 6, 5-bromo-3-[N-[2-[2-(1-naphthyloxy)ethyl]carbamoyloxy]ethyl-N-phenyl]carbamoyl-1-ethylpyridinium iodide]
- inhibition at 3 µM [1]: 100%
- inhibition at 0.3 µM [1]: 100%
- inhibition at 0.03 µM [1]: 34%

SMILES: CCC[n+]1cc(Br)cc(C(=O)N(CCOC(=O)NCCOc2cccc3ccccc23)c2ccccc2)c1 [Production Example 7, 5-bromo-3-[N-[2-[2-(1-naphthyloxy)ethyl]carbamoyloxy]ethyl-N-phenyl]carbamoyl-1-propylpyridinium iodide]
- inhibition at 3 µM [1]: 100%
- inhibition at 0.3 µM [1]: 100%
- inhibition at 0.03 µM [1]: 18%
- inhibition in vivo at 0.01 mg/kg ([2]; 1 hr.): 59%
- inhibition in vivo at 0.01 mg/kg ([2]; 2 hr.): 48%
- inhibition in vivo at 0.01 mg/kg ([2]; 4 hr.): 45%
- inhibition in vivo at 0.01 mg/kg ([2]; 6 hr.): 40%
- inhibition in vivo at 0.01 mg/kg ([2]; 8 hr.): 35%
- inhibition in vivo at 0.03 mg/kg ([2]; 1 hr.): 84%
- inhibition in vivo at 0.03 mg/kg ([2]; 2 hr.): 81%
- inhibition in vivo at 0.03 mg/kg ([2]; 4 hr.): 68%
- inhibition in vivo at 0.03 mg/kg ([2]; 6 hr.): 57%
- inhibition in vivo at 0.03 mg/kg ([2]; 8 hr.): 51%
- inhibition in vivo at 0.1 mg/kg ([2]; 1 hr.): 100%
- inhibition in vivo at 0.1 mg/kg ([2]; 2 hr.): 91%
- inhibition in vivo at 0.1 mg/kg ([2]; 4 hr.): 76%
- inhibition in vivo at 0.1 mg/kg ([2]; 6 hr.): 63%
- inhibition in vivo at 0.1 mg/kg ([2]; 8 hr.): 58%
- inhibition in vivo at 0.01 mg/kg ([2]; 5 min, i.v., 5 min.): 76%
- inhibition in vivo at 0.03 mg/kg ([2]; 5 min, i.v., 5 min.): 100%
- inhibition in vivo at 0.1 mg/kg ([2]; 5 min, i.v., 5 min.): 100%
- inhibition in vivo at 3 mg/kg ([2]; 1 hr.): 36%
- inhibition in vivo at 3 mg/kg ([2]; 2 hr.): 59%
- inhibition in vivo at 3 mg/kg ([2]; 4 hr.): 63%
- inhibition in vivo at 3 mg/kg ([2]; 6 hr.): 59%
- inhibition in vivo at 3 mg/kg ([2]; 8 hr.): 41%
- inhibition in vivo at 10 mg/kg ([2]; 1 hr.): 100%
- inhibition in vivo at 10 mg/kg ([2]; 2 hr.): 97%
- inhibition in vivo at 10 mg/kg ([2]; 4 hr.): 92%
- inhibition in vivo at 10 mg/kg ([2]; 6 hr.): 84%
- inhibition in vivo at 10 mg/kg ([2]; 8 hr.): 78%
- inhibition in vivo at 30 mg/kg ([2]; 1 hr.): 100%
- inhibition in vivo at 30 mg/kg ([2]; 2 hr.): 100%
- inhibition in vivo at 30 mg/kg ([2]; 4 hr.): 97%
- inhibition in vivo at 30 mg/kg ([2]; 6 hr.): 89%
- inhibition in vivo at 30 mg/kg ([2]; 8 hr.): 86%

SMILES: CCN(CCOC(=O)NCCOc1cccc2ccccc12)C(=O)c1cc(Br)c[n+](CC)c1 [Production Example 15, 5-bromo-1-ethyl-3-[N-ethyl-N-[2-[2-(1-naphthyloxy)ethyl]carbamoyloxy]ethyl]carbamoylpyridinium iodide]
- inhibition at 3 µM [1]: 100%
- inhibition at 0.3 µM [1]: 100%
- inhibition at 0.03 µM [1]: 22%

SMILES: CCCCN(CCOC(=O)NCCOc1cccc2ccccc12)C(=O)c1cc(Br)c[n+](CC)c1 [Production Example 19, 5-bromo-1-ethyl-3-[N-butyl-N-[2-[2-(1-naphthyloxy)ethyl]carbamoyloxy]ethyl]carbamoylpyridinium iodide]
- inhibition at 3 µM [1]: 100%
- inhibition at 0.3 µM [1]: 100%
- inhibition at 0.03 µM [1]: 42%

SMILES: CCC[n+]1cc(Br)cc(C(=O)N(CCOC(=O)NCCOC(=O)Nc2cccc3ccccc23)c2ccc(Cl)cc2)c1 [Production Example 22, 5-bromo-3-[N-(4-chlorophenyl)-N-[2-[2-(1-naphthylcarbamoyloxy)ethyl]carbamoyloxy]ethyl]carbamoyl-1-propylpyridinium chloride]
- inhibition at 3 µM [1]: 100%
- inhibition at 0.3 µM [1]: 100%
- inhibition at 0.03 µM [1]: 11%

SMILES: CCC[n+]1cc(Br)cc(C(=O)N(CCOC(=O)NCCOC(=O)Nc2cccc3ccccc23)c2ccc(I)cc2)c1 [Production Example 25, 5-bromo-3-[N-(4-iodophenyl)-N-[2-[2-(1-naphthylcarbamoyloxy)ethyl]carbamoyloxy]ethyl]carbamoyl-1-propylpyridinium chloride]
- inhibition at 3 µM [1]: 100%
- inhibition at 0.3 µM [1]: 100%
- inhibition at 0.03 µM [1]: 18%

SMILES: CCC[n+]1cc(Br)cc(C(=O)N(CCOC(=O)NCCOC(=O)Nc2cccc3ccccc23)c2cc(OC)c(OC)c(OC)c2)c1 [Production Example 27, 5-bromo-3-[N-[2-[2-(1-naphthylcarbamoyloxy)ethyl]carbamoyloxy]ethyl-N-(3,4,5-trimethoxyphenyl)]carbamoyl-1-propylpyridinium chloride]
- inhibition at 3 µM [1]: 100%
- inhibition at 0.3 µM [1]: 100%
- inhibition at 0.03 µM [1]: 3%

SMILES: CCC[n+]1cc(Br)cc(C(=O)N(CCOC(=O)NCCOC(=O)Nc2cccc3ccccc23)c2cccc(Cl)c2)c1 [Production Example 44, 5-bromo-3-[N-(3-chlorophenyl)-N-[2-[2-(1-naphthylcarbamoyloxy)ethyl]carbamoyloxy]ethyl]carbamoyl-1-propylpyridinium chloride]
- inhibition at 3 µM [1]: 100%
- inhibition at 0.3 µM [1]: 100%
- inhibition at 0.03 µM [1]: 27%
- inhibition in vivo at 0.01 mg/kg ([2]; 1 hr.): 58%
- inhibition in vivo at 0.01 mg/kg ([2]; 2 hr.): 54%
- inhibition in vivo at 0.01 mg/kg ([2]; 4 hr.): 47%
- inhibition in vivo at 0.01 mg/kg ([2]; 6 hr.): 41%
- inhibition in vivo at 0.03 mg/kg ([2]; 1 hr.): 81%
- inhibition in vivo at 0.03 mg/kg ([2]; 2 hr.): 71%
- inhibition in vivo at 0.03 mg/kg ([2]; 4 hr.): 64%
- inhibition in vivo at 0.03 mg/kg ([2]; 6 hr.): 59%
- inhibition in vivo at 0.03 mg/kg ([2]; 8 hr.): 39%
- inhibition in vivo at 0.01 mg/kg ([2]; 5 min, i.v., 5 min.): 68%
- inhibition in vivo at 0.03 mg/kg ([2]; 5 min, i.v., 5 min.): 97%
- inhibition in vivo at 1 mg/kg ([2]; 1 hr.): 62%
- inhibition in vivo at 1 mg/kg ([2]; 2 hr.): 74%
- inhibition in vivo at 1 mg/kg ([2]; 4 hr.): 73%
- inhibition in vivo at 1 mg/kg ([2]; 6 hr.): 68%
- inhibition in vivo at 1 mg/kg ([2]; 8 hr.): 61%
- inhibition in vivo at 3 mg/kg ([2]; 1 hr.): 77%
- inhibition in vivo at 3 mg/kg ([2]; 2 hr.): 84%
- inhibition in vivo at 3 mg/kg ([2]; 4 hr.): 97%
- inhibition in vivo at 3 mg/kg ([2]; 6 hr.): 94%
- inhibition in vivo at 3 mg/kg ([2]; 8 hr.): 92%

Source: US4962113A, “Pyridinium derivatives, their production and use” (Takeda Chemical Industries, Ltd, priority 1987, dated 1990)
